The values below come from patent publication US6936624B2, “Agents for preserving technical materials against insects” (Nihon Bayer Agrochem K.K., priority 1991, dated 2005).

“And” between values parts separate entries of the source, which are not always exact repeats. Identical values can stand only once. Like-named read-outs stand apart in the source and are kept apart here.

The test system of test [1] is working termites and soldier termites (Coptotermes formosanus). Briefly: whole plant or invertebrate. The format is in vivo. The settings on record: for Degree of xylophagous damage in the pine tree block (0-5): after three weeks; for mortality at 0.32 ppm / mortality at 1.6 ppm / mortality at 8 ppm / mortality at 40 ppm: Coptotermes formosanus, read-out: Mortality termites after three weeks. The procedure:
Small blocks of Japanese redpine tree (2 cm×2 cm×2 cm) were soaked for one minute into the aqueous solution prepared by the similar procedure to Example 8.
After air-dried, they were kept in a constant temperature chamber at 40° C. for four weeks. Then each of the thus treated blocks was placed in a polymeric cup (10 cm diameter) containing 150 ml of sandy loam of 20% moisture content. Into each of the polymeric cups, 100 head of working termites and 10 head of soldier termites (Coptotermes formosanus) were released. After three weeks, the degree of xylophagous damage in the block and the mortality of the termites were investigated.

The subject of test [2] is worker termites (Coptotermes formosanus). In words: Formicidal test: treated filter paper in petri dish, termite mortality. The format is in vivo. The note with it: Coptotermes formosanus, 96 h, read-out: Mortality of termites after four days. The source says:
Examples of the active compounds according to the present invention • I.1: 1-(6-chloro-3-pyridylmethyl)-2-nitromethylene-imidazolidine • I.2: 3-(6-chloro-3-pyridylmethyl)-2-nitromethylene-thiazolidine • I.3: imidacloprid
Comparative compounds • A: phoxim • B: chlorpyriphos Preparation of test formulation: • Solvent: 3 parts by weight of xylene • Emulsifier: 1 part by weight of polyoxyethylene-alkylphenyl-ether
To prepare a suitable formulation of the active compound, 1 part by weight of each of the active compounds was mixed with the above-mentioned amount of the solvent containing the above-mentioned amount of the emulsifier, and the mixture was diluted with water to a predetermined concentration.
1 ml of the aqueous solution prepared in the above-mentioned procedure was uniformly applied using a pipette onto a filter paper that was placed in petri dish of 9 cm diameter. Ten head of worker termites (Coptotermes formosanus) were replaced into the petri dish and it was kept in a constant temperature chamber at 25° C.
After four days, the mortality of the termites was investigated. This test procedure was carried out in duplicate per each concentration of the active compounds under test.

For test [3], the system named is larvae of Hylotrupes bajulus. The note with it: comparative values, Holz als Roh- und Werkstoff 35 (1977) 233-237, table 6; cited from earlier work.
The subject of test [4] is Reticulitermes santonensis. The settings on record: comparative values, Holz als Roh- und Werkstoff 35 (1977) 233-237, table 10; cited from earlier work.
Test [5] concerns Reticulitermes santonensis. Briefly: Effectiveness against Reticulitermes santonensis, DIN EN 117, impregnated wood samples. The note with it: eight weeks, per wood sample. The format is in vivo. The procedure: The toxicity against Reticulitermes santonensis of solutions containing the active compound I.3 in chloroform having the concentrations mentioned in Example 10 was determined according to the detailed description of DIN EN 117 Edition 1981 which is concerned with the European standard method prescribed by the European Committee for standardization concerning wood preservatives, determination of the toxic value against Reticulitermes santonesis.
An outline of the method is as follows: (see DIN EN 117 for detail)
The same three wood-samples with impregnation treatment in vacuum as in Example 10 are provided.
They are exposed to 250 workers, 1 soldier and 1 nymph per batch for eight weeks, and afterword, the number of live/dead larvae is determined.
The evaluation was made by the following standard:
* rating values: • 0=no attack • 1=attempted attack • 2=slight attack • 3=average attack • 4=strong attack

In test [6] the test system is larvae of Hylotrupes bajulus. In words: Toxic value against larvae of Hylotrupes bajulus, DIN EN 47, impregnated wood samples. The format is in vivo. The source says:
The toxicity against larvae of Hylotorupes bajulus, using wood samples treated with the active compound I.3 […] to the detailed description of DIN EN 47 (edition 1990, Beuth Verlag GMBH) which is concerned with the European standard method prescribed by the European Committee for standardization concerning wood preservatives, determination of the toxic value against larvae of Hylotrupes bajulus.
An outline of the method is as follows: (see DIN EN 47 for detail)
Five wood-samples (50 mm×25 mm×15 mm) which are treated by the active compound beforehand (impregnation treatment in vacuum) are provided and in each specimen, a regular pattern of six holes are bored, and then one head of the larvae is inserted per a hole.
After four weeks, the specimens are cut up in turn and the number of live/dead of larvae is determined.
In determination, where a live larvae is identified in a specimen, then the remaining specimens without cutting up are stored for a further eight weeks, and afterword, the number of live/dead larvae is determined.

The mark [7] stands for this setting: 1.44 × 10^−2% (m/m), average absorbed 136.627 g/m^3.
[8] abbreviates: 1.44 × 10^−3% (m/m), average absorbed 13.463 g/m^3.
[9] abbreviates: 1.44 × 10^−4% (m/m), average absorbed 1.344 g/m^3.
The mark [10] stands for this setting: 1.44 × 10^−5% (m/m), average absorbed 0.135 g/m^3.
[11] abbreviates: 7.20 × 10^−3% (m/m), average absorbed 68.211 g/m^3.
[12] abbreviates: 4 weeks, impregnating solution 0.00144 %, M-value 10.80 g/m^3 wood.
The mark [13] stands for this setting: 4 weeks, impregnating solution 0.0072 %, M-value 52.85 g/m^3 wood.
[14] abbreviates: 4 weeks, impregnating solution 0.0144 %, M-value 103.97 g/m^3 wood.
Setting [15] is: 12 weeks, impregnating solution 0.000144 % (so in the source), M-value 0.11 g/m^3 wood.
Where [16] appears, read: 12 weeks, impregnating solution 0.000144 %, M-value 1.08 g/m^3 wood.
Where [17] appears, read: 12 weeks, impregnating solution 0.00144 % (remaining three specimens), M-value 10.80 g/m^3 wood.

For orientation: mortality means the percentage killed. For `CCOP(=S)(OCC)O/N=C(\C#N)c1ccccc1` [A, 0-(α-cyanobenzylideneamino)0,0-diethylphosphorothioate, reference compound], the “Degree of xylophagous damage in the pine tree block (0-5)” value came to 5 in test [1] (0.32 ppm), 5 in test [1] (1.6 ppm), 5 in test [1] (8 ppm) and 3 in test [1] (40 ppm). The mortality at 0.32 ppm in test [1] amounted to 0%; in test [2] (0.32 ppm active compound, filter paper, 25° C.), 90%. For the same compound, the mortality at 1.6 ppm in test [1] amounted to 0%; in test [2] (1.6 ppm active compound, filter paper, 25° C.), 100%. For the same compound, the mortality at 8 ppm was found to be 0% in test [1] and 100% in test [2] (8 ppm active compound, filter paper, 25° C.). For the same compound, the mortality at 40 ppm was 25% in test [1] and 100% in test [2] (40 ppm active compound, filter paper, 25° C.). Besides, the toxic value in test [3] is recorded as 7-12 g/m^3; in test [4] it was 400 g/m^3.
With `CCC(C)c1ccccc1OC(=O)NC` (stereo not drawn) [Bassa (Baycarb)], the toxic value in test [4] is 500 g/m^3.
Consider `CCOP(=S)(OCC)ON=C(C#N)c1ccccc1Cl` [Chlorophoxim], for which, in test [4], the toxic value is 500 g/m^3.
As for `Clc1ccc(C(c2ccc(Cl)cc2)C(Cl)(Cl)Cl)cc1` [DDT], the toxic value in test [3] is 5-10 g/m^3; in test [4] it was >1 500 g/m^3.
Take `ClC1=C(Cl)[C@]2(Cl)[C@@H]3[C@@H]4C[C@@H]([C@H]5O[C@@H]45)[C@@H]3[C@@]1(Cl)C2(Cl)Cl` [Dieldrin]: the toxic value in test [4] is on record as 50 g/m^3.
For the compound `CCOP(=S)(OCC)Oc1ccc([N+](=O)[O-])cc1` [Ethylparathion], the toxic value in test [4] is on record as 200 g/m^3.
Consider `O=[N+]([O-])N=C1NCCN1Cc1ccc(Cl)nc1` [I.3, 1-(6-chloro-3-pyridylmethyl)-2-nitroimino-imidazolidine], for which the “Degree of xylophagous damage in the pine tree block (0-5)” value in test [1] (0.32 ppm), in test [1] (1.6 ppm), in test [1] (8 ppm) and in test [1] (40 ppm) was 0 in each case. Moreover, the mortality at 0.32 ppm in test [1] and in test [2] was 100% throughout. For the same compound, the mortality at 1.6 ppm in test [1] and in test [2] was 100% in each case. The mortality at 8 ppm in test [1] and in test [2] was 100% in each case. For the same compound, the mortality at 40 ppm in test [1] and in test [2] was 100% in each case. Besides, the rating in test [5] (setting [7]) amounted to 0; in test [5] (setting [8]), 1; in test [5] (setting [9]), 1; in test [5] (setting [10]), 4; in test [5] (setting [11]), 0. The surviving workers in test [5] (setting [7]) was 0%; in test [5] (setting [8]) it was 0%; in test [5] (setting [9]) it was 0%; in test [5] (setting [10]) it was 55% and 51% and 58%; in test [5] (setting [11]) it was 0%. In addition, the “State of the larvae at the end of the test: dead, no wood digested” value came to 4 in test [6] (setting [12]); 29 in test [6] (setting [13]); 27 in test [6] (setting [14]); 1 in test [6] (setting [15]); 4 in test [6] (setting [16]); 6 in test [6] (setting [17]). Besides, the “State of the larvae at the end of the test: dead, wood digested” value came to 6 in test [6] (setting [12]); 1 in test [6] (setting [13]); 3 in test [6] (setting [14]); 4 in test [6] (setting [15]); 12 in test [6] (setting [16]); 11 in test [6] (setting [17]). For the same compound, the “State of the larvae at the end of the test: living” value worked out at 1 in test [6] (setting [12]); 0 in test [6] (setting [13]); 0 in test [6] (setting [14]); 23 in test [6] (setting [15]); 11 in test [6] (setting [16]); 0 in test [6] (setting [17]). The “State of the larvae at the end of the test: not found” value in test [6] (setting [12]) amounted to 1; in test [6] (setting [13]) it was 0; in test [6] (setting [14]) it was 0; in test [6] (setting [15]) it was 2; in test [6] (setting [16]), 3; in test [6] (setting [17]), 1.
Turning to `Cl[C@H]1[C@H](Cl)[C@@H](Cl)[C@@H](Cl)[C@H](Cl)[C@H]1Cl` [Lindan], the toxic value in test [4] is 75 g/m^3.
For `CNC(=O)Oc1ccccc1OC(C)C` [Propoxur], the toxic value in test [3] is 18-30 g/m^3; in test [4] it was 140 g/m^3.
